pIC50: −log10 of the molar value.
Columns and labels:
DAGLβ [1] = biological target: T1, DAGLβ (Mus musculus, UniProt Q91WC9); test: inhibition of DAGLβ in transfected HEK293T lysate; type: biochemical
T1 sequence (Q91WC9 1-669): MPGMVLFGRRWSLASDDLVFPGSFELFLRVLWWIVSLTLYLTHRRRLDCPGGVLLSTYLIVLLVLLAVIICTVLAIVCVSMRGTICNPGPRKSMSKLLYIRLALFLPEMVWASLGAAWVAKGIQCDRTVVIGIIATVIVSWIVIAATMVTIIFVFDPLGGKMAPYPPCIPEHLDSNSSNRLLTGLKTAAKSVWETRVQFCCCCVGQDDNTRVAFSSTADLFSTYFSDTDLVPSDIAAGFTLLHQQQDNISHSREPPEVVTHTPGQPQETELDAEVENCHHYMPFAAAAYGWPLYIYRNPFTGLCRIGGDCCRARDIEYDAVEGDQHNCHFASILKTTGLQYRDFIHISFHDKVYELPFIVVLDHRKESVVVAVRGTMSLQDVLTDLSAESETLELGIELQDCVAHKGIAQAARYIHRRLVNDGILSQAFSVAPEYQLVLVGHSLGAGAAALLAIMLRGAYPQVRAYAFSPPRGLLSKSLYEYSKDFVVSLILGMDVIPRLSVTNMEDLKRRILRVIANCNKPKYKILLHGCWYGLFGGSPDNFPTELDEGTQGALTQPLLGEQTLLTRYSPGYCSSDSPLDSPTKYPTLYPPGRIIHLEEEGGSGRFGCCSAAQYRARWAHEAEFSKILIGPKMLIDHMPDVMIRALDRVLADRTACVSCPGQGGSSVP

human DAGLβ = biological target: T2, human DAGLβ (Homo sapiens, UniProt Q8NCG7); test: in vitro inhibition of human DAGLβ activity; type: cell-based
T2 sequence (Q8NCG7 1-672): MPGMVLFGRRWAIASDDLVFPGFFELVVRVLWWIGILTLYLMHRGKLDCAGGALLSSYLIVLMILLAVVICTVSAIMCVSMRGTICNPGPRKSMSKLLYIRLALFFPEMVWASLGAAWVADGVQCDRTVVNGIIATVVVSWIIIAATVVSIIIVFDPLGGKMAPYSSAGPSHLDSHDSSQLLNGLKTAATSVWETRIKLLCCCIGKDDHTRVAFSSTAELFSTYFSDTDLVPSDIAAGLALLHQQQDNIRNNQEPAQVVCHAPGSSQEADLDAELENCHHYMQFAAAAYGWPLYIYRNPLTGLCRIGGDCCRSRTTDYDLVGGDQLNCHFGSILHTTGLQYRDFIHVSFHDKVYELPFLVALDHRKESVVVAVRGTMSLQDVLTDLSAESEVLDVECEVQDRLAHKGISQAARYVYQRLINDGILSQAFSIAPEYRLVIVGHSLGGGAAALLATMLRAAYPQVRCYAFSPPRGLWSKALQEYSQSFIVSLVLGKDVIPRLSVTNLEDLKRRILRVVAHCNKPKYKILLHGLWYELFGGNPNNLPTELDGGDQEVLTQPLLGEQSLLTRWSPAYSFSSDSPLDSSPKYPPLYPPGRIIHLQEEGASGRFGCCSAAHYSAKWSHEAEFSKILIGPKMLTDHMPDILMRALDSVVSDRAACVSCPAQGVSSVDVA

ABHD6 = biological target: T3, ABHD6 (Mus musculus, UniProt Q8R2Y0); test: competitive ABPP in mouse brain proteome; type: biochemical
T3 sequence (Q8R2Y0 1-336): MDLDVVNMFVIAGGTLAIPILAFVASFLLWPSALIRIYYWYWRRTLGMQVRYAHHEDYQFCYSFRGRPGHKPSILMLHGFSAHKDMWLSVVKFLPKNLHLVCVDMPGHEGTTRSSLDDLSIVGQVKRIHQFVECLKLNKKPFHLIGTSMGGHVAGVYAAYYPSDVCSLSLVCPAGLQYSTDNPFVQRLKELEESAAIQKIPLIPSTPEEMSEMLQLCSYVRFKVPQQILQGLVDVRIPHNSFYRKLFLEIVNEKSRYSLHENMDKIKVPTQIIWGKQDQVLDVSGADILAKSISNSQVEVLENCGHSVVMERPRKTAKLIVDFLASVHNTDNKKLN

DAGLβ [2] = biological target: T1, DAGLβ; test: competitive ABPP on DAGLβ-transfected HEK293T proteome; type: biochemical

Compound `O=C(N1CCCCC1Cc1ccccc1)n1cc(-c2ccc(Br)cc2)nn1` (stereo not shown) [compound 31, KT116] has a pIC50 (DAGLβ [1]) of 7.52.
With `O=C(N1CCCCC1Cc1ccccc1)n1cc(-c2ccc(-c3ccccc3)cc2)nn1` (stereo not shown) [compound 32, KT109] the pIC50 (human DAGLβ) was 6.24, the pIC50 (ABHD6) was 7.80 and the pIC50 (DAGLβ [2]) was 7.38.

— publication PMC3513945 (Nature chemical biology, 2012)
